{
  "source": "patent US10751339B2",
  "about": "“Substituted aminopyrimidine compounds and methods of use” (SUNSHINE LAKE PHARMA CO., LTD., priority 2018, dated 2020)",
  "key": {"[1]": {"test_system": "mouse model of rheumatoid arthritis", "conditions": "in vivo; cited from earlier work"}, "[2]": {"test_system": "model of systemic lupus erythematosis", "conditions": "in vivo; cited from earlier work"}, "[3]": {"test_system": "indolent B cell malignancies", "conditions": "Phase I, subset of patients with indolent B cell malignancies; cited from earlier work"}, "PI3K (p110β/p85α) (h)": {"biological_target": "PI3K (p110β/p85α) (h) (Homo sapiens (Human), UniProt P42338)", "sequence (P42338 whole entry)": "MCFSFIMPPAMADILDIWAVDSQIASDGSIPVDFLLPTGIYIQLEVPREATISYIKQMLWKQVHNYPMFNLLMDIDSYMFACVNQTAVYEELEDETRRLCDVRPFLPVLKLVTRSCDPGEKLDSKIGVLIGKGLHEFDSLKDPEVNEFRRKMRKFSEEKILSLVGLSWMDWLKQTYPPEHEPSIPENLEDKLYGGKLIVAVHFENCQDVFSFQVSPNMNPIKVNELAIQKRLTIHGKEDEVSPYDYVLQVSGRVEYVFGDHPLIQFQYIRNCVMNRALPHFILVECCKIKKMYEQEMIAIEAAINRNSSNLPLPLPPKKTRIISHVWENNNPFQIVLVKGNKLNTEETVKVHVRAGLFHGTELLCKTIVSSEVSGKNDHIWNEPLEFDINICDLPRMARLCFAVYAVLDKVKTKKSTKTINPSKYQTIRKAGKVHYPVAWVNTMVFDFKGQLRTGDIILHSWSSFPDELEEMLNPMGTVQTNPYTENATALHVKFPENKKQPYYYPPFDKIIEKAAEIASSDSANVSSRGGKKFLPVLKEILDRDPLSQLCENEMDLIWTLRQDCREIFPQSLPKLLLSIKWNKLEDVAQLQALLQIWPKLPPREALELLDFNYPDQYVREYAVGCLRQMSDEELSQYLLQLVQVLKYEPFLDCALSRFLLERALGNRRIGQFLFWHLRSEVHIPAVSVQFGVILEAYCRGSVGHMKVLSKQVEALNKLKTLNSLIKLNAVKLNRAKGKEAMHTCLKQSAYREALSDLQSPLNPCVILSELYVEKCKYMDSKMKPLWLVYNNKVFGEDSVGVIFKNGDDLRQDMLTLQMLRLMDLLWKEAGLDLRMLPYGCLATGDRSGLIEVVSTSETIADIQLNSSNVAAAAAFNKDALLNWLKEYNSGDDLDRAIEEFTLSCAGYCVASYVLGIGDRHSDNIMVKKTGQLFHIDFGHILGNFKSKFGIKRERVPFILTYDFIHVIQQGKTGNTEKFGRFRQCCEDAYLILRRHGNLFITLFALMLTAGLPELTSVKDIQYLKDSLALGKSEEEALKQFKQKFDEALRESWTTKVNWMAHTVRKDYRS", "sequence (P27986 whole entry partner)": "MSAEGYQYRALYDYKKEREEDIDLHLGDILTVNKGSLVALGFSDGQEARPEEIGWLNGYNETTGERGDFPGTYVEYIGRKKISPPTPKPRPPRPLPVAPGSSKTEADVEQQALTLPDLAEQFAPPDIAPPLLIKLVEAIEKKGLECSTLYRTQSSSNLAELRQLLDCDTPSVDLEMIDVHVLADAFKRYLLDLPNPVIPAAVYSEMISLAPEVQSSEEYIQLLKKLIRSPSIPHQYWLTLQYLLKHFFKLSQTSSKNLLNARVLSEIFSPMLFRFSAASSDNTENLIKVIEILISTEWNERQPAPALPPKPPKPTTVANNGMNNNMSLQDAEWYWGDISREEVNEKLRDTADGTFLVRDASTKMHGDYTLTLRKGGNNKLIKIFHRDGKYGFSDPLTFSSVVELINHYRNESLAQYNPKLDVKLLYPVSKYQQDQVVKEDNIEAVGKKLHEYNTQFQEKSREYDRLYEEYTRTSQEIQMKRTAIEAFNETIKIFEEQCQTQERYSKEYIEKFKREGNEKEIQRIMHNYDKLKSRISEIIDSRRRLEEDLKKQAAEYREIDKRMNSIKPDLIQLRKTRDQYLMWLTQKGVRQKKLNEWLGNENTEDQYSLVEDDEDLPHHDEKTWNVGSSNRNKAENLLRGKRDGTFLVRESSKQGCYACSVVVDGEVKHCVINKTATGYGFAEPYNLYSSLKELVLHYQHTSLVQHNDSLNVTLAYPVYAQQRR", "assay": "PI3K (p110β/p85α) (h) non-radioactive HTRF kinase assay", "type": "biochemical", "description": "(§1) PI3K (p110β/p85α) (h) is incubated in assay buffer containing 10 μM phosphatidylinositol-4,5-bisphosphate and MgATP (concentration as required). The reaction is initiated by the addition of the MgATP mix. After incubation for 30 minutes at room temperature, the reaction is stopped by the addition of stop solution containing EDTA and biotinylated phosphatidylinositol-3,4,5-trisphosphate. Finally, detection buffer is added, which contains europium-labelled anti-GST monoclonal antibody, GST-tagged GRP1 PH domain and streptavidin-allophycocyanin. The plate is then read in timeresolved fluorescence mode and the homogenous time-resolved fluorescence (HTRF) signal is determined according to the formula HTRF=10000×(Em665 nm/Em620 nm).\n(§2) The kinase assays described herein were performed at Millipore UK Ltd, Dundee Technology Park, Dundee DD2 1SW, UK."}, "PI3K-γ (RAW264.7)": {"test_system": "PI3K-γ (RAW264.7)", "assay": "p-AKT HTRF assay, PI3K-γ in RAW 264.7 cells stimulated with C5a", "type": "cell-based, murine", "conditions": "Mus musculus; RAW264.7 cells, C5a stimulation", "description": "(§3) Cells were incubated at 37° C. in a 5% CO2 atmosphere overnight. […] Medium was then aspirated and 50 μL/well of lysis buffer was added. Plates were shaked for 45 minutes at room temperature and then 16 ul/well of lysate was transferred to 384-well plate. 4 ul/well of premixed antibody was added to the wells. The plate was centrifuged at 1000 rpm at RT for 1 minute and then incubated for 4 hours at 22° C., and Phospho-AKT (ser473) Kit was used for detection."}, "PI3K-δ (RAJI)": {"test_system": "PI3K-δ (RAJI)", "assay": "p-AKT HTRF assay, PI3K-δ in RAJI cells stimulated with anti-IgM", "type": "cell-based", "conditions": "anti-human IgM stimulation", "description": "as §3"}, "PI3K-β (786-O)": {"test_system": "PI3K-β (786-O)", "assay": "p-AKT HTRF assay, PI3K-β in 786-O cells", "type": "cell-based", "conditions": "Homo sapiens, 786-0", "description": "as §3"}, "hERG channels": {"biological_target": "hERG channels (Homo sapiens (Human), UniProt Q12809)", "assay": "hERG assay, automated QPatch procedure", "type": "cell-based", "from_the_text": "Only stable cells with recording parameters above threshold were allowed to enter the drug application procedure."}, "PI3K (p110δ/p85α) (h)": {"biological_target": "PI3K (p110δ/p85α) (h) (Homo sapiens (Human), UniProt O00329)", "sequence (O00329 whole entry)": "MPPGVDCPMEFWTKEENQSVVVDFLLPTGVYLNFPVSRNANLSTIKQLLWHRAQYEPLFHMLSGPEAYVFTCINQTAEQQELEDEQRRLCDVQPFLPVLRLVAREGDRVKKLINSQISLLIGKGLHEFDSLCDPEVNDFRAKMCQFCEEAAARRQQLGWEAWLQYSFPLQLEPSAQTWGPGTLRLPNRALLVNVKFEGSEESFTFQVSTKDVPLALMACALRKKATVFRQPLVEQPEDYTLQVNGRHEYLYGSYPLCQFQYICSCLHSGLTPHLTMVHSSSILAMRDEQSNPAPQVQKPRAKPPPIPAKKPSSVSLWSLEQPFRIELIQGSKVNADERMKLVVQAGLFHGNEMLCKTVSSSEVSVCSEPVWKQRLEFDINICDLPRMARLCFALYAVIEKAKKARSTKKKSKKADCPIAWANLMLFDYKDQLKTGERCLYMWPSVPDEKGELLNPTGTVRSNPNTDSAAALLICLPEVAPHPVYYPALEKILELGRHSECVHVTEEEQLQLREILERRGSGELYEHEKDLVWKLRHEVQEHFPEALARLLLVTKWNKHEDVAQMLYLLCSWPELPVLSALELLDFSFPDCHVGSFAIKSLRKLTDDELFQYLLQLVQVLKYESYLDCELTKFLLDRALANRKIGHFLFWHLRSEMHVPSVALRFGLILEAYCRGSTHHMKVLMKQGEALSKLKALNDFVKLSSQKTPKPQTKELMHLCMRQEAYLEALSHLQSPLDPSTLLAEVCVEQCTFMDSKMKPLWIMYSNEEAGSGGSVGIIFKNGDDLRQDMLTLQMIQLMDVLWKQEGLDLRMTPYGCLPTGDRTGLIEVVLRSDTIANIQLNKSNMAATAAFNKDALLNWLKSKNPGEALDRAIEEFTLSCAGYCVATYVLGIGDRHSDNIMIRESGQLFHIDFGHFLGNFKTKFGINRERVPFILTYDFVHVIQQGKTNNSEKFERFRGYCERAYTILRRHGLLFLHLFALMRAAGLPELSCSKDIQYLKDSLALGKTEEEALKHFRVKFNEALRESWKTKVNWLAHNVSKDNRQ", "sequence (P27986 whole entry partner)": "as the sequence (P27986 whole entry partner) above", "assay": "PI3K (p110δ/p85α) (h) non-radioactive HTRF kinase assay", "type": "biochemical", "description": "as §1, with “(p110δ/p85α)” for “(p110β/p85α)”, “phosphatidylinositol-4, 5-bisphosphate” for “phosphatidylinositol-4,5-bisphosphate”\nas §2"}, "PI3K-α (SKOV3)": {"test_system": "PI3K-α (SKOV3)", "assay": "p-AKT HTRF assay, PI3K-α in SKOV3 cells", "type": "cell-based", "conditions": "Homo sapiens, SK-OV-3", "description": "as §3"}, "PI3K (p110α/p85α) (h)": {"biological_target": "PI3K (p110α/p85α) (h) (Homo sapiens (Human), UniProt P42336)", "sequence (P42336 whole entry)": "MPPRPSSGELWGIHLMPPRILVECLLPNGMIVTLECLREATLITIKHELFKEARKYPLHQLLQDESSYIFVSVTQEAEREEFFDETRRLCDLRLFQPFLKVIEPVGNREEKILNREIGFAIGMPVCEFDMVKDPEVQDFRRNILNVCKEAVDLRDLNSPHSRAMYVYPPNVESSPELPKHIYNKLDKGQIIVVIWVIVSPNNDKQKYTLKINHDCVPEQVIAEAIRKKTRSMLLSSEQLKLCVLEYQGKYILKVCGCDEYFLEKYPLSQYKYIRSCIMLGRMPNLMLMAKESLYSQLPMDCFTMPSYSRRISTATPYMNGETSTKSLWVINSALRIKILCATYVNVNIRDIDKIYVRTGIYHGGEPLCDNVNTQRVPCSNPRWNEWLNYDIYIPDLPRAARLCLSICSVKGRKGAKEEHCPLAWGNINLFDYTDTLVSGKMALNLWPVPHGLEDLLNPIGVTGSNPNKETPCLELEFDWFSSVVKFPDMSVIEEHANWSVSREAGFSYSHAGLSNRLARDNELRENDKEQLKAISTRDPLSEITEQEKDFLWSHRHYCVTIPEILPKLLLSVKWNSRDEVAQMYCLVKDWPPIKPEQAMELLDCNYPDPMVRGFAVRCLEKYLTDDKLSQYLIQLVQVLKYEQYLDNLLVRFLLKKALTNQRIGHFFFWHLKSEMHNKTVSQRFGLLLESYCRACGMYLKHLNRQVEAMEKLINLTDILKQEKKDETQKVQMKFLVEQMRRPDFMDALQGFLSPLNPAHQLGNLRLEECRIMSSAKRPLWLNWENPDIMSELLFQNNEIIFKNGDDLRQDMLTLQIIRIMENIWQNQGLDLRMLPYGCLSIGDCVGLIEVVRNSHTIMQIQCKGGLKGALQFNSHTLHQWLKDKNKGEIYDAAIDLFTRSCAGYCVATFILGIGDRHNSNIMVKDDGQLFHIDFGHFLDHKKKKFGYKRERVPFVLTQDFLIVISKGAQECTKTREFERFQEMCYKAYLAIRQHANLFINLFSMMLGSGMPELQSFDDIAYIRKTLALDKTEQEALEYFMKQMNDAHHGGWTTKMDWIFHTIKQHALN", "sequence (P27986 whole entry partner)": "as the sequence (P27986 whole entry partner) above", "assay": "PI3K (p110α/p85α) (h) non-radioactive HTRF kinase assay", "type": "biochemical", "description": "as §1, with “(p110α/p85α)” for “(p110β/p85α)”, “phosphatidylinositol 4,5-bisphosphate” for “phosphatidylinositol-4,5-bisphosphate”, “ATP solution.” for “MgATP mix.”, “streptavidin allophycocyanin.” for “streptavidin-allophycocyanin.”\nas §2"}, "PI3K (p120γ) (h)": {"biological_target": "PI3K (p120γ) (h) (Homo sapiens (Human), UniProt P48736)", "sequence (P48736 whole entry)": "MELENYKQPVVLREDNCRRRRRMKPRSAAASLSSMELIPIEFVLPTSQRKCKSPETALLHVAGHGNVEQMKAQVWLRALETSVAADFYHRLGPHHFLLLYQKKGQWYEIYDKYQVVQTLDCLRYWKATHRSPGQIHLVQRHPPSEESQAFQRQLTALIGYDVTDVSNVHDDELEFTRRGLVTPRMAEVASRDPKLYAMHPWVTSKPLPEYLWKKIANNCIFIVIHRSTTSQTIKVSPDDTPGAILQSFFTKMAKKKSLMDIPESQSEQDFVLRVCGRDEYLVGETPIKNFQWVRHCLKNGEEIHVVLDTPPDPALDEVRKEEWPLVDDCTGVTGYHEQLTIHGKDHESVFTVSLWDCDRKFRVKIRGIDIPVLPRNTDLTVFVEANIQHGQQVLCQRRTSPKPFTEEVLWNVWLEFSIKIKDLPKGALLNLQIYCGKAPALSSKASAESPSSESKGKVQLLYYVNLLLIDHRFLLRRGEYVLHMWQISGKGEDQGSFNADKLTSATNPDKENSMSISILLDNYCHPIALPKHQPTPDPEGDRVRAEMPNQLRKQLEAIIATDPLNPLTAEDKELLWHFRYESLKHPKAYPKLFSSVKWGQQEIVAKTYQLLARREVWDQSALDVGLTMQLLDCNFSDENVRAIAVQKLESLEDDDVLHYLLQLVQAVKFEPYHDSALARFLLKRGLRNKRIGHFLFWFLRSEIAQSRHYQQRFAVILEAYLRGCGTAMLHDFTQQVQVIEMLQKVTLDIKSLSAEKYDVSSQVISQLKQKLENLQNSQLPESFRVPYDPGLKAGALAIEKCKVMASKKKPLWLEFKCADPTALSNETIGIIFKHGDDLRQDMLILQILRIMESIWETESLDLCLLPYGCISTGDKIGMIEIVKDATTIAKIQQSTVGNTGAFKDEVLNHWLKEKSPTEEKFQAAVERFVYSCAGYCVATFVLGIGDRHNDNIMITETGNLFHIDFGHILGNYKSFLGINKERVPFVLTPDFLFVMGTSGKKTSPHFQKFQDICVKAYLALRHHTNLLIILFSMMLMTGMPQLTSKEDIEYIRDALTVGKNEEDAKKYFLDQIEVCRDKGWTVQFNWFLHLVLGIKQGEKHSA", "assay": "PI3K (p120γ) (h) non-radioactive HTRF kinase assay", "type": "biochemical", "description": "as §1, with “(p120γ)” for “(p110β/p85α)”, “phosphatidylinositol-4, 5-bisphosphate” for “phosphatidylinositol-4,5-bisphosphate”\nas §2"}, "[4]": {"assay": "Compound stability in human liver microsomes", "type": "in vitro ADME", "conditions": "pH 7.4", "how_it_was_run": "(§4)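 Compounds (5 μM, 0.05% DMSO) incubated in duplicate with liver microsomes (0.5 mg protein/mL) and 1.0 mM NADPH in 100 mM phosphate buffer pH 7.4 at 37 °C, sampled 0–60 min. Remaining compound measured by LC/MS/MS, expressed as percent of zero-time control; denatured-microsome and dextromethorphan controls included.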"}, "[5]": {"assay": "Compound stability in rat liver microsomes", "type": "in vitro ADME", "conditions": "pH 7.4", "how_it_was_run": "as §4"}},
  "data": [
    {"smiles": "O=C1NC(=O)/C(=C\\c2ccc3nccnc3c2)S1", "note": "[AS 605240]", "values": [
      {"measurement": "efficacy in a mouse model of rheumatoid arthritis", "setting": "[1]", "result": "efficacious"},
      {"measurement": "effect on onset of disease in a model of systemic lupus erythematosis", "setting": "[2]", "result": "delay onset of disease"}
    ]},
    {"smiles": "CC[C@H](Nc1ncnc2[nH]cnc12)c1nc2cccc(F)c2c(=O)n1-c1ccccc1", "note": "[CAL-101, idelalisib]", "values": [
      {"measurement": "clinical response", "setting": "[3]", "result": "dramatic and durable responses"}
    ]},
    {"smiles": "CC#Cc1cccc2cc([C@H](C)Nc3ncnc(N)c3-c3nc(C)no3)n(-c3ccccc3)c(=O)c12", "note": "[Example 16, (S)-3-(1-((6-amino-5-(3-methyl-1,2,4-oxadiazol-5-yl)pyrimidin-4-yl)amino)ethyl)-2-phenyl-8-(prop-1-yn-1-yl)isoquinolin-1(2H)-one]", "values": [
      {"measurement": "IC50", "setting": "PI3K (p110β/p85α) (h)", "result": 0.061, "unit": "µM"},
      {"measurement": "IC50", "setting": "PI3K-γ (RAW264.7)", "result": 0.0226, "unit": "µM"},
      {"measurement": "IC50", "setting": "PI3K-δ (RAJI)", "result": 0.00052, "unit": "µM"},
      {"measurement": "IC50", "setting": "PI3K-β (786-O)", "result": 0.0344, "unit": "µM"},
      {"measurement": "IC50", "setting": "hERG channels", "result": "> 30", "unit": "µM"},
      {"measurement": "IC50", "setting": "PI3K (p110δ/p85α) (h)", "result": 0.01, "unit": "µM"},
      {"measurement": "IC50", "setting": "PI3K-α (SKOV3)", "result": 0.305, "unit": "µM"},
      {"measurement": "IC50", "setting": "PI3K (p110α/p85α) (h)", "result": 0.121, "unit": "µM"},
      {"measurement": "IC50", "setting": "PI3K (p120γ) (h)", "result": 0.026, "unit": "µM"}
    ]},
    {"smiles": "CC[C@H](Nc1ncnc(N)c1-c1nnc(C)o1)c1nc2cccc(C#CCO)c2c(=O)n1-c1ccccc1", "note": "[Example 37, (S)-2-(1-((6-amino-5-(5-methyl-1,3,4-oxadiazol-2-yl)pyrimidin-4-yl)amino)propyl)-5-(3-hydroxyprop-1-yn-1-yl)-3-phenylquinazolin-4(3H)-one]", "values": [
      {"measurement": "IC50", "setting": "PI3K (p110β/p85α) (h)", "result": "> 3", "unit": "µM"},
      {"measurement": "CLint scaled at 5 μM", "setting": "[4]; liver microsomes, in vivo CLint extrapolated from human liver microsome incubation", "result": 39.8, "unit": "mL/min/kg"},
      {"measurement": "half-life at 5 μM", "setting": "[4]; human liver microsomes 0.5 mg protein/mL, compound 5 μM, NADPH, 37° C., read-out: Human T1/2", "result": 43.7, "unit": "min"},
      {"measurement": "CLint scaled at 5 μM", "setting": "[5]; liver microsomes, in vivo CLint extrapolated from rat liver microsome incubation", "result": 113, "unit": "mL/min/kg"},
      {"measurement": "half-life at 5 μM", "setting": "[5]; rat liver microsomes 0.5 mg protein/mL, compound 5 μM, NADPH, 37° C., read-out: Rat T1/2", "result": 22, "unit": "min"},
      {"measurement": "IC50", "setting": "PI3K (p110δ/p85α) (h)", "result": 0.045, "unit": "µM"},
      {"measurement": "IC50", "setting": "PI3K (p110α/p85α) (h)", "result": "> 3", "unit": "µM"},
      {"measurement": "IC50", "setting": "PI3K (p120γ) (h)", "result": 0.44, "unit": "µM"}
    ]}
  ]
}
